Reference: ChEMBL document CHEMBL6120946, “From Hit to Lead: Discovery of First-In-Class Furanone Glycoside D228 Derived from Chimonanthus salicifolius for the Treatment of Inflammatory Bowel Disease” (J Med Chem, 2024)
Calls of active or inactive are those of the source. The rule behind the calls is not given here.

Legend:
[1] = Cytotoxicity against mouse Splenocyte by MTT assay; type: toxicity, cell-based; details: splenocytes
B-cell line = experiment: Immunosuppressive activity in mouse B-lymphocyte assessed as reduction in LPS-induced cell proliferation incubated for 48 hrs; type: functional, cell-based
[2] = Immunosuppressive activity in mouse T-lymphocyte assessed as reduction in concanavalin A-induced cell proliferation incubated for 48 hrs; type: functional, cell-based
Mus musculus [3] = experiment: Antiinflammatory activity in DSS-induced male C57BL/6 mouse model of inflammatory bowel disease assessed as recovery from body weight loss at 40 mg/kg/day, po measured after 7 days relative to control; type: functional; details: time 7 day
[4] = Selectivity ratio of CC50 for cytotoxicity against mouse Splenocyte to IC50 for immunosuppressive activity in mouse T-lymphocyte; type: toxicity; details: splenocytes (CC50) and T-lymphocytes (IC50)
[5] = Selectivity ratio of CC50 for cytotoxicity against mouse Splenocyte to IC50 for immunosuppressive activity in mouse B-lymphocyte; type: toxicity; details: splenocytes (CC50) and B-lymphocytes (IC50)
Mus musculus [6] = experiment: Antiinflammatory activity in DSS-induced male C57BL/6 mouse model of inflammatory bowel disease assessed as recovery from body weight loss at 40 mg/kg/day, po measured after 7 days; type: functional, organism-based; details: time 7.0 day
Mus musculus [7] = experiment: Antiinflammatory activity in DSS-induced male C57BL/6 mouse model of inflammatory bowel disease assessed as recovery in colon length at 40 mg/kg/day, po measured after 7 days relative to control; type: functional; details: time 7 day
Mus musculus [8] = experiment: Antiinflammatory activity in DSS-induced male C57BL/6 mouse model of inflammatory bowel disease assessed as restoration of colon length at 40 mg/kg/day, po via gavage measured after 14 days relative to control; type: functional; details: time 14 day
Mus musculus [9] = experiment: Antiinflammatory activity in male C57BL/6 mouse model of inflammatory bowel disease assessed as recovery of DSS-induced body weight loss at 40 mg/kg/day, po via gavage measured after 14 days relative to control; type: functional; details: time 14 day
Mus musculus [10] = experiment: Antiinflammatory activity in DSS-induced male C57BL/6 mouse model of inflammatory bowel disease assessed as reduction in diarrhea at 7.5 to 15 mg/kg/day, po via gavage measured upto 14 days; type: functional, organism-based; details: dose 7.5-15 mg/kg/day, time <= 14.0 day
Mus musculus [11] = experiment: Antiinflammatory activity in DSS-induced male C57BL/6 mouse model of inflammatory bowel disease assessed as reduction of bloody stool at 7.5 to 15 mg/kg/day, po via gavage measured upto 14 days; type: functional, organism-based; details: dose 7.5-15 mg/kg/day, time <= 14.0 day
Mus musculus [12] = experiment: Antiinflammatory activity in DSS-induced male C57BL/6 mouse model of inflammatory bowel disease assessed as increase in colon length at 15 mg/kg/day, po via gavage measured upto 14 days relative to control; type: functional; details: time <= 14 day
Mus musculus [13] = experiment: Antiinflammatory activity in DSS-induced male C57BL/6 mouse model of inflammatory bowel disease assessed as reduction in weight loss at 7.5 to 15 mg/kg/day, po via gavage measured upto 14 days; type: functional, organism-based; details: dose 7.5-15 mg/kg/day, time <= 14.0 day
Mus musculus [14] = experiment: Antiinflammatory activity in DSS-induced male C57BL/6 mouse model of inflammatory bowel disease assessed as increase in colon length at 7.5 mg/kg/day, po via gavage measured upto 14 days relative to control; type: functional; details: time <= 14 day

SMILES: CC(=O)OC[C@H]1O[C@@H](OC2=C(C)OC(=C3CCCCC3)C2=O)[C@H](OC(C)=O)[C@@H](OC(C)=O)[C@@H]1OC(C)=O
- CC50 [1]: 35.6 µM
- IC50 (B-cell line): 54 µM
- IC50 [2]: 4720 µM
- Activity (Mus musculus [3]): 30.7%
- selectivity ratio [4]: 0.92
- selectivity ratio [5]: 0.79
- Activity (Mus musculus [6]): Active
- Activity (Mus musculus [7]): 54.8%

SMILES: COC(=O)[C@H]1O[C@@H](OC2=C(C)OC(=C(C)C)C2=O)[C@H](OC(C)=O)[C@@H](OC(C)=O)[C@@H]1OC(C)=O
- Activity (Mus musculus [8]): 9.5%
- CC50 [1]: 212 µM
- IC50 (B-cell line): > 100 µM
- IC50 [2]: > 100 µM
- Activity (Mus musculus [9]): 44.8%

SMILES: CC1=C(O)C(=O)C(=C2CCNCC2)O1
- CC50 [1]: 205 µM
- IC50 (B-cell line): > 100 µM
- IC50 [2]: > 100 µM

SMILES: CC1=C(O)C(=O)C(=C2CCCC2)O1
- CC50 [1]: 248 µM
- Activity (Mus musculus [10]): Active
- Activity (Mus musculus [11]): Active
- IC50 (B-cell line): > 100 µM
- IC50 [2]: > 100 µM
- Activity (Mus musculus [12]): 98.4%
- Activity (Mus musculus [13]): Active
- Activity (Mus musculus [14]): 99.2%
